The values that follow come from patent US10894786B2, “Substituted pyrazole derivatives as selective CDK12/13 inhibitors” (Aurigene Discovery Technologies Limited, priority 2018, dated 2021).

The target in experiment [1] is T1, CDK7 (Homo sapiens (Human), UniProt P50613). Put plainly: Biochemical assay for CDK7, LANCE TR-FRET. To be noted: read-out: CDK 7 IC50. Here is the method:
The inhibitory activity of the test compounds was assessed by the LANCE TR-FRET assay, which detects the ATP-dependent phosphorylation of an ULight-myelin basic protein (MBP) substrate peptide (100 nM) by CDK7 (10 nM). Briefly, the enzyme reaction was run in reaction buffer (20 mM HEPES (pH 7.5), 10 mM MgCl2, 0.01% Triton x, 100 μM Sodium Orthovanadate, 1 mM DTT). The assay was performed in 384-well plate. The end concentration of the ATP substrate was 1 mM/100 μM, and that of the ULight-MBP substrate peptide was 100 nM, and of CDK7 was 10 nM. Pre-incubation of the compound and enzyme was performed for 60 min at room temperature. After 60 min incubation at room temperature, the reaction was terminated by the addition of 40 mM EDTA and 1 nM Eu-labeled anti-phospho-MBP-binding protein antibody in the buffer. […] The readout was calculated as (acceptor counts/donor counts)×1000. The IC50 values were derived by fitting a sigmoidal dose-response curve to a plot of assay readout over inhibitor concentration.
Target sequence in this assay (P50613 whole entry, looked up, species assumed): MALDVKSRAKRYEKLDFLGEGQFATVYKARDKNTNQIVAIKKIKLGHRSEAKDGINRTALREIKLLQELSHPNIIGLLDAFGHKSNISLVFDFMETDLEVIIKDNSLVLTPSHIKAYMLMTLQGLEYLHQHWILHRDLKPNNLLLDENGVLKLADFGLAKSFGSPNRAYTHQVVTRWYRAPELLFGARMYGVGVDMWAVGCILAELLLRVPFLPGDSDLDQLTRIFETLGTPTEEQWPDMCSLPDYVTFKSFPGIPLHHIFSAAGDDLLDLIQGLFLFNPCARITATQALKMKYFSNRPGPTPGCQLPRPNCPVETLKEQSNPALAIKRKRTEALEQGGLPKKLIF
Target sequence in this assay (P51946 whole entry partner, looked up, species assumed): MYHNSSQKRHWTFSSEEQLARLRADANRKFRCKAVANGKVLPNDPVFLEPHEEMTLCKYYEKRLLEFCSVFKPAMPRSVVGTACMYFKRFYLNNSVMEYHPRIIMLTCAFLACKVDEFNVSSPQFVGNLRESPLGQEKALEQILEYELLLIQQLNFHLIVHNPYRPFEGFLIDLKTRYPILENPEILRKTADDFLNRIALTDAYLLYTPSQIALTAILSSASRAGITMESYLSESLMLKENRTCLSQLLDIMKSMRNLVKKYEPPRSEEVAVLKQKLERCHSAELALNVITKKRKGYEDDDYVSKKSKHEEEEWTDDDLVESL
Target sequence in this assay (P51948 whole entry partner, looked up, species assumed): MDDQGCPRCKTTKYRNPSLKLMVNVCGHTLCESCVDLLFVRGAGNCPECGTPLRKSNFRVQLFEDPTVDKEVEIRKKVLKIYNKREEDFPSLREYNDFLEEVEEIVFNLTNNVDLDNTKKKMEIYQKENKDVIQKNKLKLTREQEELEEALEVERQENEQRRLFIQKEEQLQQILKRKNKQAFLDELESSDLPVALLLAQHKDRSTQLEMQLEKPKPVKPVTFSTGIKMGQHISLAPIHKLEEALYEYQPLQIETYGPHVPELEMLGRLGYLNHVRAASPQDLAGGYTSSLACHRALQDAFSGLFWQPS
(In general: Time-resolved FRET reads energy transfer from a long-lived donor to a nearby acceptor.)

In a further experiment the target is CDK13 (Homo sapiens (Human), UniProt Q14004). Put plainly: Biochemical assay for CDK13, LanthaScreen Eu Kinase Binding Assay. Particulars: for IC50: kinase tracer 236 100 nM; for Ratio CDK7/CDK13: ratio of IC50. The text has this: Binding of an inhibitor to the kinase competes for binding with the tracer, resulting in a loss of FRET signal.
Chain of CDK13 (Q14004 whole entry, looked up, species assumed): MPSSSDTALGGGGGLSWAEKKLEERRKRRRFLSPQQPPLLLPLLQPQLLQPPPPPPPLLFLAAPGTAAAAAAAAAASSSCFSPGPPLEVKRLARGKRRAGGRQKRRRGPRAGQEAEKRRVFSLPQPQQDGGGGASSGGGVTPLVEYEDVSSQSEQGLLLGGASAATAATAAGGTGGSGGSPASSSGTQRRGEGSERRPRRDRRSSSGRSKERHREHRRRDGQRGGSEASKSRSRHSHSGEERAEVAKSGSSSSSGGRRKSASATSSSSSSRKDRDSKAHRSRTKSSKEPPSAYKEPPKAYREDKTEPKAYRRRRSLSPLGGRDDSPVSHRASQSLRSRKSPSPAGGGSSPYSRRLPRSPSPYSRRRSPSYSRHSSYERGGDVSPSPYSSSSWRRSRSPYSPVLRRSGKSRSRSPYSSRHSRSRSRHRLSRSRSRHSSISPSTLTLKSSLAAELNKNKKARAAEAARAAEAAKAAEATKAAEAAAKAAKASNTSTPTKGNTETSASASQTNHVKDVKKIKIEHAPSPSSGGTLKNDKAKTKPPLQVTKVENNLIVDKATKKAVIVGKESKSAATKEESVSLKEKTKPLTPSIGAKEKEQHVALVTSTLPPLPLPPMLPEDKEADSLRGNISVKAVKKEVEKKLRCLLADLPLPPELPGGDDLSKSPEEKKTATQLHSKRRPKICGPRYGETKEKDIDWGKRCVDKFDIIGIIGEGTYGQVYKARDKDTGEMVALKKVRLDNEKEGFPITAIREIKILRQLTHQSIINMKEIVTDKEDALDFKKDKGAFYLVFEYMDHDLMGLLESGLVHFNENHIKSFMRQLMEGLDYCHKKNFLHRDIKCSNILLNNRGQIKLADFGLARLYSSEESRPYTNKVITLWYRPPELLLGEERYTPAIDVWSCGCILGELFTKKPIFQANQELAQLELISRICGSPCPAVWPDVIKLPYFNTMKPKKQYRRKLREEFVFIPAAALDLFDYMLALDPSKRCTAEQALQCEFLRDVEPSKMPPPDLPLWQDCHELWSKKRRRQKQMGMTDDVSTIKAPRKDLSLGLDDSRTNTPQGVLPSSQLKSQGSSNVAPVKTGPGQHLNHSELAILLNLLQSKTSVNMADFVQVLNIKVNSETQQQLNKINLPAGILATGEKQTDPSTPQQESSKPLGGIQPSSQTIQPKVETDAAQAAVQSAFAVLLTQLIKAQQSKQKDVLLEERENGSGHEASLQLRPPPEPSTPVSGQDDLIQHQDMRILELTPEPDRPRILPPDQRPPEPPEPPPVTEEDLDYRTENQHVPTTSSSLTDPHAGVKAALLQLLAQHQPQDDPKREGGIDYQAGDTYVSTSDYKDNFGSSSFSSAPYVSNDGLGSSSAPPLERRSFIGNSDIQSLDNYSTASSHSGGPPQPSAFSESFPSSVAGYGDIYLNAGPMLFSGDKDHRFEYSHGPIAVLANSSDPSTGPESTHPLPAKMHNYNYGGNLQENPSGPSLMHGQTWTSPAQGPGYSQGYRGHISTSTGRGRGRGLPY
Chain of CDK13 (O75909 whole entry partner, looked up, species assumed): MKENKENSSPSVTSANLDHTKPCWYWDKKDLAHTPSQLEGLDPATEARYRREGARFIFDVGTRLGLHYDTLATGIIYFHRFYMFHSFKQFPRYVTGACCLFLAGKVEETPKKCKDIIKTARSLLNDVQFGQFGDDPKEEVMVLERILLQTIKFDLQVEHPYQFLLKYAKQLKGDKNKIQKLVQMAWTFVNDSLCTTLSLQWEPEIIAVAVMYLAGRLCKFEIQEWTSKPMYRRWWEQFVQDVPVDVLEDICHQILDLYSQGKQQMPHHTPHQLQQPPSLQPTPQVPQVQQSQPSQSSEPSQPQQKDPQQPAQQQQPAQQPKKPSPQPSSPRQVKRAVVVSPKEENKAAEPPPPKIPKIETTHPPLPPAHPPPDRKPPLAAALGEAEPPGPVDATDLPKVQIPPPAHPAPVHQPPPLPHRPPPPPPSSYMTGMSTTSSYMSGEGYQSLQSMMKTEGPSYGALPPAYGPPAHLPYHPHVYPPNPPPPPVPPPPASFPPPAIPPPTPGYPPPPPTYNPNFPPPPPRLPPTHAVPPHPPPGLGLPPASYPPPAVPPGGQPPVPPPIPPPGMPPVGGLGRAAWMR
The target in experiment [2] is T2, CDK12 (Homo sapiens (Human), UniProt Q9NYV4). Put plainly: CDK12 plate based target engagement assay in Jurkat cells. The class given is cell-based. Here is the method: Jurkat cells were treated with varying concentrations of the compound for 6 hours. The DMSO concentration was maintained at 0.1%. Cells were harvested and lysed. 200 μg of the lysate was incubated with 1 μM Bio-THZ531 in the presence of 1 mM DTT and incubated on a rocker at 4° C. overnight. 100 μL of this sample was added to pre-washed streptavidin coated plates and incubated at room temperature on a rocker for 2 hours. The plates were washed and incubated with CDK12 antibody for overnight at 4° C. Next day the plate was washed and incubated for 2 hours with HRP labelled anti rabbit secondary antibody. Bio-THZ531 bound CDK12 was determined using TMB substrate. […] Percentage CDK12 occupancy with the test compound was calculated over untreated control. Occupancy 50 was calculated by fitting the dose response data to sigmoidal curve fitting equation using GraphPad Prism software V5.

The target of experiment [3] is T2, CDK12. Put plainly: Biochemical assay for CDK12 (IC50 determination), LANCE TR-FRET. Particulars: for IC50: ATP 100 μM, 60 min pre-incubation. Here is the method: The inhibitory activity of the test compounds was assessed by the LANCE TR-FRET assay, which detects the ATP-dependent phosphorylation of an ULight-4E-BP1 (Thr37/Thr46) substrate peptide (100 nM) by CDK12 (30 nM). Briefly, the enzyme reaction was run in reaction buffer (25 mM HEPES (pH 7.5), 10 mM MgCl2, 0.01% BSA, 0.01% Triton x, 1 mM DTT). The assay was performed in 384-well plate format. The end concentration of the ATP substrate was 100 μM, and that of the ULight-4E-BP1 (Thr37/Thr46) substrate peptide was 100 nM, and of CDK12 was 30 nM. Pre-incubation of the compound and enzyme was performed for 60 min at room temperature. After 60 min incubation at room temperature, the reaction was terminated by the addition of 40 mM EDTA and 0.5 nM Eu-labeled anti-phospho-eIF4E-binding protein (Thr37/46) antibody in LANCE detection buffer. […] The readout was calculated as (acceptor counts/donor counts)×1000. The IC50 values were derived by fitting a sigmoidal dose-response curve to a plot of assay readout over inhibitor concentration.

Experiment [4] concerns the target T2, CDK12. Put plainly: Biochemical assay for CDK12 (Kd determination), kinase-tagged phage/qPCR competition binding. Here is the method: Kinase-tagged T7 phage strains were grown in parallel in 24-well blocks in an E. coli host derived from the BL21 strain. E. coli were grown to log-phase and infected with T7 phage from a frozen stock (multiplicity of infection=0.4) and incubated with shaking at 32° C. until lysis (90-150 minutes). The lysates were centrifuged (6,000×g) and filtered (0.2 μm) to remove cell debris. The remaining kinases were produced in HEK-293 cells and subsequently tagged with DNA for qPCR detection. […] The liganded beads were blocked with excess biotin and washed with blocking buffer (SeaBlock (Pierce), 1% BSA, 0.05% Tween 20, 1 mM DTT) to remove unbound ligand and to reduce non-specific phage binding. […] Test compounds were prepared as 40× stocks in 100% DMSO and directly diluted into the assay. All reactions were performed in polypropylene 384-well plates in a final volume of 0.02 ml. […] The kinase concentration in the eluates was measured by qPCR.
Target sequence in this assay (Q9NYV4 whole entry, species assumed): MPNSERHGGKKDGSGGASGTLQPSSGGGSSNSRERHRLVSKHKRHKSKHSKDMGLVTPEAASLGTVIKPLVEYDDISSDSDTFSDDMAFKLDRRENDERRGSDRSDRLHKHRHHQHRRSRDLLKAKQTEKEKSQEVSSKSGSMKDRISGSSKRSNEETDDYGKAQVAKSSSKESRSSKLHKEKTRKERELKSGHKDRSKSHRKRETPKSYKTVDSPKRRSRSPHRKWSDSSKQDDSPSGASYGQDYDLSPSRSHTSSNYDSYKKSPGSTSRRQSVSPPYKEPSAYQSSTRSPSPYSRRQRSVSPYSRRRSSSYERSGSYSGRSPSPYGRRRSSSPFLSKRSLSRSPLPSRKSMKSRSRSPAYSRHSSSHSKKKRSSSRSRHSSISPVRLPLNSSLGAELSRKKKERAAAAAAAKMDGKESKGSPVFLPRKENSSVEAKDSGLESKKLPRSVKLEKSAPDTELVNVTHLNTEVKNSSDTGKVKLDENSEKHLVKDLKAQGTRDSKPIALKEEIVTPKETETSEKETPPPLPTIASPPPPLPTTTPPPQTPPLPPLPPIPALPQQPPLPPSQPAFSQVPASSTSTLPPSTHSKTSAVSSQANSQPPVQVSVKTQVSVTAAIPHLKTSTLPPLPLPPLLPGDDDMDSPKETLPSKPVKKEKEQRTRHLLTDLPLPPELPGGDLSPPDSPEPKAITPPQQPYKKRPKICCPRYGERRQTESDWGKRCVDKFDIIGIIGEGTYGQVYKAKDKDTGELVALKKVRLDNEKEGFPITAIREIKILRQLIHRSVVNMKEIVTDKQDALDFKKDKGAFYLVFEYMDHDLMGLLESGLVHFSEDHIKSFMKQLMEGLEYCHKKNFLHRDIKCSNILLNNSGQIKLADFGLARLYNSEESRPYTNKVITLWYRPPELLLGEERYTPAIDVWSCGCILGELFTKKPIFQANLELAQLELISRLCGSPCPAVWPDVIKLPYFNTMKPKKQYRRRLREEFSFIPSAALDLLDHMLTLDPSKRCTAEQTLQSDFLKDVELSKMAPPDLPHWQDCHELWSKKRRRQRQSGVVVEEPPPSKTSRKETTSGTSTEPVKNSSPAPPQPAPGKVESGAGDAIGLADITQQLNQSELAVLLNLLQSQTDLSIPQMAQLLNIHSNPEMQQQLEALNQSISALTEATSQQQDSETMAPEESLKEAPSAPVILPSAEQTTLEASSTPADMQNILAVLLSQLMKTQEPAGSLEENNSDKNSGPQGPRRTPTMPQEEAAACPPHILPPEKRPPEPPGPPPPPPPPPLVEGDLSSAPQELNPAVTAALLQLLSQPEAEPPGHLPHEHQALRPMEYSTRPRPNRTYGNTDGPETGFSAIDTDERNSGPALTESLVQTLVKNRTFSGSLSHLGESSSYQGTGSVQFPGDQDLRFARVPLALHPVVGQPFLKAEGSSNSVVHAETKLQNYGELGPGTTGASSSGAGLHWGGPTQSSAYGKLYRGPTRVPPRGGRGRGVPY
In general terms: Real-time PCR tracks product formation cycle by cycle.

For experiment [5], the target named is T1, CDK7. Put plainly: CDK7 target occupancy in Jurkat cells. The class given is cell-based.
The mark [6] stands for this setting: ATP 1 mM/100 μM, 60 min pre-incubation.

Read-outs that look alike come from different tables or passages of the source.

As for `C=CC(=O)N1CC=C(c2ccc(C(C)C(=O)Nc3cc(C4CC4)[nH]n3)cn2)CC1` (single isomer, unassigned) [Compound 6, 2-(1′-acryloyl-1′,2′,3′,6′-tetrahydro-[2,4′-bipyridin]-5-yl)-N-(5-cyclopropyl-1H-pyrazol-3-yl)propanamide], the IC50 on CDK7 [1] (setting [6]) stood at 1300 nM; on CDK13, 6 nM; at CDK12 [3], 40 nM. The “Ratio CDK7/CDK13” value on CDK13 is given as 216.66. On CDK12 [2] (Jurkat cells, 6 hours), the “CDK12 Target Occupancy (Tocc50) μM in Jurkat cells” value (shortened to “CDK12 Target Occupancy (Tocc50) μM”) was found to be 0.012 µM. At CDK12 [3], the “Ratio CDK7/CDK12” value stood at 32.5. This compound came in with a Kd at CDK12 [4] below 25 nM.

`C=CC(=O)N1CCC=C(c2ccc(C(C)C(=O)Nc3cc(C4CC4)[nH]n3)cn2)C1` (single isomer, unassigned) [Compound 37, 2-(1′-acryloyl-1′,2′,5′,6′-tetrahydro-[2,3′-bipyridin]-5-yl)-N-(5-cyclopropyl-1H-pyrazol-3-yl)propanamide]: the IC50 on CDK13 stood at 3 nM; against CDK12 [3], 29 nM. Also, the “CDK12 Target Occupancy (Tocc50) μM” value at CDK12 [2] (Jurkat cells, 6 hours) was 0.012 µM. At CDK12 [4], this compound gave a Kd below 25 nM.

On to `C=CC(=O)N1CCC(c2ccc([C@H](C)C(=O)Nc3cc(C4CC4)[nH]n3)cc2)CC1` [Compound 12, (S)-2-(4-(1-acryloylpiperidin-4-yl)phenyl)-N-(5-cyclopropyl-1H-pyrazol-3-yl)propanamide], for which the figures for the IC50 at CDK7 [1] (setting [6]), at CDK13 and on CDK12 [3] were 2830 nM, 7 nM and 151 nM, respectively. Moreover, the “Ratio CDK7/CDK13” value on CDK13 was 404.28. The “CDK12 Target Occupancy (Tocc50) μM” value on CDK12 [2] (Jurkat cells, 6 hours) worked out at 0.080 µM. Moreover, on CDK12 [3], the “Ratio CDK7/CDK12” value is reported as 18.74.

Consider `C[C@H](C(=O)Nc1cc(C2CC2)[nH]n1)c1ccc(C2=CCN(C(=O)/C=C/CN(C)C)CC2)cc1` [Compound 15, (S,E)-N-(5-cyclopropyl-1H-pyrazol-3-yl)-2-(4-(1-(4-(dimethylamino)but-2-enoyl)-1,2,3,6-tetrahydropyridin-4-yl)phenyl)propanamide], for which the figures for the IC50 at CDK7 [1] (setting [6]), at CDK13 and on CDK12 [3] were 621 nM, 18.8 nM and 235 nM, respectively. The “Ratio CDK7/CDK13” value on CDK13 was found to be 33.03. For the same compound, the “Ratio CDK7/CDK12” value at CDK12 [2] is given as 8.175; on CDK12 [3] it was 2.64. The “Jurkat Cells, CDK12 Target Occ50” value at CDK12 [2] (Jurkat cells) amounted to 204.4 nM. Further, the “binding affinity towards CDK12 in comparison to CDK7” value on CDK12 [2] (Jurkat cells target occupancy) is reported as above 8 fold. Moreover, at CDK12 [2] (Jurkat cells, 6 hours), the “CDK12 Target Occupancy (Tocc50) μM” value is 0.204 µM. Further, at CDK7 [5], the “Jurkat Cells, CDK7 Target Occ50” value came to 1671 nM.

For `C=CC(=O)N1CCN(c2ccc(C(C)C(=O)Nc3cc(C4CC4)[nH]n3)cc2)CC1` (stereo not drawn) [Compound 17, 2-(4-(4-acryloylpiperazin-1-yl)phenyl)-N-(5-cyclopropyl-1H-pyrazol-3-yl)propanamide], the IC50 at CDK7 [1] came out at 7960 nM. In addition, at CDK13, the IC50 stood at 81 nM and the “Ratio CDK7/CDK13” value amounted to 98.27. Moreover, at CDK12 [2] (Jurkat cells, 6 hours), the “CDK12 Target Occupancy (Tocc50) μM” value came out at 0.030 µM. Further, on CDK12 [3], the “Ratio CDK7/CDK12” value came to 13.49 and the IC50 came out at 590 nM. The Kd at CDK12 [4] was above 100 nM.

With `C=CC(=O)N1CCC=C(c2ccc([C@H](C)C(=O)Nc3cc(C4CC4)[nH]n3)cc2)C1` [Compound 34, (S)-2-(4-(1-acryloyl-1,2,5,6-tetrahydropyridin-3-yl)phenyl)-N-(5-cyclopropyl-1H-pyrazol-3-yl)propanamide], the IC50 on CDK13 is 4.3 nM; at CDK12 [3] it was 189 nM. The “CDK12 Target Occupancy (Tocc50) μM” value at CDK12 [2] (Jurkat cells, 6 hours) was 0.050 µM. Besides, the Kd on CDK12 [4] is below 25 nM.

For `C=CC(=O)N1CC=C(c2ccc(C(C)C(=O)Nc3cc(C4CC4)[nH]n3)cc2F)CC1` (stereo not drawn) [Compound 44, 2-(4-(1-acryloyl-1,2,3,6-tetrahydropyridin-4-yl)-3-fluorophenyl)-N-(5-cyclopropyl-1H-pyrazol-3-yl)propanamide], the values for the IC50 at CDK7 [1] (setting [6]), at CDK13 and on CDK12 [3] were 880 nM, 5.8 nM and 9 nM, respectively. At CDK13, the “Ratio CDK7/CDK13” value is reported as 151.72. Also, at CDK12 [2] (Jurkat cells, 6 hours), the “CDK12 Target Occupancy (Tocc50) μM” value stood at 0.009 µM. Besides, the “Ratio CDK7/CDK12” value at CDK12 [3] was 97.77.

In the case of `C#CC(=O)N1CC=C(c2ccc(C(C)C(=O)Nc3cc(C4CC4)[nH]n3)cn2)CC1` (stereo not drawn) [Compound 50, N-(5-cyclopropyl-1H-pyrazol-3-yl)-2-(1′-propioloyl-1′,2′,3′,6′-tetrahydro-[2,4′-bipyridin]-5-yl)propanamide], the IC50 on CDK7 [1] was determined as 12 nM. Further, at CDK13, the IC50 was 7 nM and the “Ratio CDK7/CDK13” value came to 1.71. For the same compound, the “CDK12 Target Occupancy (Tocc50) μM” value on CDK12 [2] was 0.038 µM.

Consider `CC#CC(=O)N1CCC=C(c2ccc(C(C)C(=O)Nc3cc(C4CC4)[nH]n3)cn2)C1` (stereo not drawn) [Compound 52, 2-(1′-(but-2-ynoyl)-1′,2′,5′,6′-tetrahydro-[2,3′-bipyridin]-5-yl)-N-(5-cyclopropyl-1H-pyrazol-3-yl)propanamide], for which the IC50 at CDK7 [1] (setting [6]) amounted to 2190 nM. For the same compound, at CDK13, the IC50 turned out to be 19 nM and the “Ratio CDK7/CDK13” value was 115.26. For the same compound, the “CDK12 Target Occupancy (Tocc50) μM” value on CDK12 [2] (Jurkat cells, 6 hours) worked out at 0.179 µM. In addition, at CDK12 [3], the “Ratio CDK7/CDK12” value is recorded as 9.64 and the concentration for half-maximal inhibition (IC50) came out at 227 nM.

Regarding `C=CC(=O)N1CC=C(c2ccc(CC(=O)Nc3cc(C4CC4)[nH]n3)cn2)C1` [Compound 53, 2-(6-(1-acryloyl-2,5-dihydro-1H-pyrrol-3-yl)pyridin-3-yl)-N-(5-cyclopropyl-1H-pyrazol-3-yl)acetamide], the IC50 on CDK7 [1] (setting [6]) is 7790 nM. Further, on CDK13, the IC50 is 0.9 nM and the “Ratio CDK7/CDK13” value turned out to be 8655.55. The “CDK12 Target Occupancy (Tocc50) μM” value at CDK12 [2] (Jurkat cells, 6 hours) was determined as 0.014 µM. Also, on CDK12 [3], the “Ratio CDK7/CDK12” value came out at 779 and it took 10 nM to reach half-maximal inhibition (IC50).

A word on the IC50: it is the concentration needed to halve the response being measured. A word on the Kd: it is the equilibrium constant for the complex coming apart. The low end stands for higher affinity, the high end for lower affinity.
